Consider two compounds from patent US6806266B1 (priority 1999, dated 2004).

Structures are written as SMILES. Like-named read-outs stand apart in the source and are kept apart here.

For series [1], the system named is human AGP (hα1AGP). In kind it is binding. The following applies: equimolar solution (20 μmol/L) of test compound and human AGP, PBS pH=7.4, 37° C., two hours after mixing with DCC; HPLC peak area ratio.
Procedure: A solution of the test compound in DMSO was added to an isotonic phosphate buffer (PBS, pH=7.4) containing human AGP, to prepare an equimolar solution (20 μmol/L) of the test compound and human AGP. The solution was pre-incubated at 37° C. for 15 minutes and then mixed with an equal volume of 4 mg/mL of DCC in PBS, and incubation was further continued. After two hours from mixing, a part of the solution was sampled and centrifuged (4° C., 20000×g, 2 minutes) to precipitate the charcoal, and the supernatant was subjected to HPLC analysis. Separately, an equimolar solution (20 μmol/L) of the test compound and human AGP was mixed with an equal volume of PBS (pH=7.4), and then the mixed solution was subjected as a DCC-untreated sample to HPLC analysis. The ratio of the peak area of the DCC-treated sample to the average peak area of the DCC-untreated sample (the solution mixed with PBS) was calculated as the degree of binding (%).
Series [2] relates to human epidermal cancer cell line A431. It is filed as cell-based. The following applies: A431 cells. The method, then:
After the removal of the culture supernatant, the cells were washed with PBS(−), detached in an aqueous solution of 0.25% of Trypsin (GIBCO BRL) and 0.02% of ethylenediaminetetraacetic acid (Wako Pure Chemical Industries, Ltd.), then fixed at a density of 10^6 cells/mL with a 70% aqueous solution of ethanol and stored in a cold room at 4° C. Ethanol was removed by centrifugation from the fixed cells, and then the fixed cells were washed with PBS(−). The cells were treated at 37° C. for 30 minutes with a 0.25 mg/mL PBS(−)solution of ribonuclease A type 1-A (Sigma) containing 0.1% of Nonidet P-40 (Nacalai Tesque, Inc.), and then a solution of propidiumiodide (Sigma) in 0.1% NP-40/PBS(−) was added into the cells at a final concentration of 50 μg/mL, and the cells were stained in ice for at least 20 minutes.
A DNA histogram was taken by EPICS ELITE Flow Cytometer, and the cell cycle distribution was analyzed by use of MultiCycle Program.
In the method shown in Test Example 3, the G2 stage and the M stage of the cell cycle can not be distinguished from each other, and thus the distrubution of the G2 stage combined with that of the M stage (G2 stage+M stage) is expressed in percentage.

Series [3] relates to human lung cancer cell line A-549. Briefly: Test for inhibitory activity on cell growth in human lung cancer cell line A-549. Particulars: A549, 72 h, read-out: Inhibitory activity on cell growth (IC50/μmol/L).
[4] abbreviates: Cisplatin 20 μmol/L + test compound 50 nmol/L, 8 hours.

`CN[C@@H]1C[C@H]2O[C@@](C)([C@@H]1OC)n1c3ccccc3c3c4c(c5c6ccccc6n2c5c31)C(=O)N[C@@H]4O` [UCN-01]: in series [1], the “Degree of binding to hα1AGP (%)” value is on record as 76.8%. In addition, in series [2] (setting [4]), the “Cell cycle distribution (%) G1 stage” value is 31.9%, the “Cell cycle distribution (%) G2 stage + M stage” value is reported as 27.6% and the “Cell cycle distribution (%) S stage” value is recorded as 40.5%. In series [2] (in combination with Cisplatin (20 μmol/L)), the “abrogation of accumulation action at the G2 stage and S stage” value was “a decrease in the S stage and an increase in the G1 stage”. Further, the IC50 in series [3] stood at 0.018 µmol/L.
Consider `N.N.[Cl][Pt][Cl]` [Cisplatin], for which, in series [2] (Cisplatin 20 μmol/L alone), the “Cell cycle distribution (%) G1 stage” value was found to be 5.5%, the “Cell cycle distribution (%) G2 stage + M stage” value was found to be 17.5% and the “Cell cycle distribution (%) S stage” value came to 77.0%. Besides, the “accumulation action at the G2 stage or S stage (cell cycle distribution versus untreated group)” value in series [2] (only Cisplatin (20 μmol/L)) is “An increase in the S stage, an increase in (G2 stage+M stage) and a decrease in the G1 stage”.
